17 compounds from US20250228239A1, “MOLECULES HAVING PESTICIDAL UTILITY, AND INTERMEDIATES, COMPOSITIONS, AND PROCESSES, RELATED THERETO” (priority 2024, published 2025) can be followed below.

Where two headings read alike, the source gives them in different places.

What all share (assay type): in vivo
The test system of test [1] is Yellow Fever Mosquito (Aedes aegypti, AEDSAE). The note with it: for YFM rating: Table ABC / ABC-DP rating. Put shortly: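 Larvae ~1 day old, in liver powder/water; compound from 4000 ppm DMSO stock diluted with water/acetone (90:10); 6 reps; lidded, RT, 3 d; mortality scored per well, rated.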
Test [2] has as its system Beet Armyworm (Spodoptera exigua, LAPHEG). Briefly: Bioassays on Beet Armyworm (BAW), 128-well diet tray assay. Conditions: Spodoptera exigua. Put shortly: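 Mortality of second-instar larvae (1–5/well) on artificial diet treated with 50 μg/cm^2 compound, read after 5–7 days at 25° C.; values are means of eight wells.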
Test [3] deals with Cabbage Looper (Trichoplusia ni, TRIPNI). As to the kind of experiment: Bioassays on Cabbage Looper (CL), 128-well diet tray assay. The note with it: Trichoplusia ni. A digest of the protocol: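 Activity is mean percent mortality over eight wells of second-instar larvae exposed to diet treated at 50 μg/cm^2 for 5–7 days at 25° C.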
The mark [4] stands for this setting: Beet Armyworm, Table ABC / ABC-DP rating, read-out: BAW rating.
Where [5] appears, read: Cabbage Looper, Table ABC / ABC-DP rating, read-out: CL rating.
Where [6] appears, read: Table ABC: Biological Results, species YFM.
Where [7] appears, read: Table ABC: Biological Results, species BAW, read-out: BAW.
[8] abbreviates: Table ABC: Biological Results, species CL, read-out: CL.
[9] abbreviates: Yellow Fever Mosquito, rating class.
The mark [10] stands for this setting: Beet Armyworm, rating class, read-out: BAW.
The mark [11] stands for this setting: Cabbage Looper, rating class, read-out: CL.

In the case of `O=C(NCCC(F)(F)F)c1c(Cl)ccc(NC(=O)[C@H]2[C@H](c3ccc(F)c(Cl)c3)C2(Cl)Cl)c1Cl` (relative stereo) [F2024, trans-2,6-Dichloro-3-(2,2-dichloro-3-(3-chloro-4-fluorophenyl)cyclopropane-1-carboxamido)-N-(3,3,3-trifluoropropyl)benzamide], the YFM rating result in test [1] (Yellow Fever Mosquito) is given as “A (80–100)”. Further, the pest or weed control at 50 µg/cm2 in test [2] (setting [4]) and in test [3] (setting [5]) was 50 to 100% throughout.

Take `CN(NC(=O)c1cc(NC(=O)[C@H]2[C@H](c3cc(Cl)cc(Cl)c3)C2(Cl)Cl)ccc1Cl)c1ccccc1` [F2510, (1R,3R)-2,2-Dichloro-N-(4-chloro-3-(2-methyl-2-phenylhydrazine-1-carbonyl)phenyl)-3-(3,5-dichlorophenyl)cyclopropane-1-carboxamide]: the YFM rating result in test [1] (Yellow Fever Mosquito) was “A (80–100)”. Also, the pest or weed control at 50 µg/cm2 in test [2] (setting [4]) and in test [3] (setting [5]) was 50 to 100% in each case.

Take `CN(C(=O)c1cc(NC(=O)[C@H]2[C@H](c3ccc(F)c(C(F)(F)F)c3)C2(Cl)Cl)ccc1Cl)c1ccc(F)c(NC(=O)C(F)(F)F)c1F` [F1795, 2-Chloro-5-((1R,3R)-2,2-dichloro-3-(4-fluoro-3-(trifluoromethyl)phenyl)cyclopropane-1-carboxamido)-N-(2,4-difluoro-3-(2,2,2-trifluoroacetamido)phenyl)-N-methylbenzamide]: the YFM rating result in test [1] (Yellow Fever Mosquito) was “A (80–100)”. The pest or weed control at 50 µg/cm2 in test [2] (setting [4]) and in test [3] (setting [5]) was 50 to 100% each time.

As for `CC(C)(Br)C(=O)Nc1c(F)ccc(NC(=O)c2cc(NC(=O)[C@H]3[C@H](c4ccc(F)c(C(F)(F)F)c4)C3(Cl)Cl)ccc2Cl)c1F` [F1354, N-(3-(2-Bromo-2-methylpropanamido)-2,4-difluorophenyl)-2-chloro-5-((1R,3R)-2,2-dichloro-3-(4-fluoro-3-(trifluoromethyl)phenyl)cyclopropane-1-carboxamido)benzamide], the YFM result in test [1] (setting [6]) is listed as “A (80–100)”. For the same compound, the pest or weed control at 50 µg/cm2 in test [2] (setting [7]) and in test [3] (setting [8]) was 50 to 100% each time.

Turning to `Cc1cc(NC(=O)[C@H]2[C@H](c3ccc(F)c(Cl)c3)C2(Cl)Cl)cc(C(=O)Nc2ccc(F)cc2)c1F` (relative stereo) [F1136, trans-5-(2,2-Dichloro-3-(3-chloro-4-fluorophenyl)cyclopropane-1-carboxamido)-2-fluoro-N-(4-fluorophenyl)-3-methylbenzamide], the YFM entry in test [1] (setting [6]) is on record as “A (80–100)”. Besides, the pest or weed control at 50 µg/cm2 in test [2] (setting [7]) and in test [3] (setting [8]) was 50 to 100% each time.

For the compound `CCC(=O)Nc1c(F)ccc(NC(=O)c2cc(NC(=O)[C@H]3[C@H](c4cc(Cl)c(Cl)c(Cl)c4)C3(Cl)Cl)ccc2Cl)c1F` [F1654, 2-Chloro-5-((1R,3R)-2,2-dichloro-3-(3,4,5-trichlorophenyl)cyclopropane-1-carboxamido)-N-(2,4-difluoro-3-propionamidophenyl)benzamide], the YFM result in test [1] (setting [9]) is on record as “A (80–100)”. In addition, the pest or weed control at 50 µg/cm2 in test [2] (setting [10]) and in test [3] (setting [11]) was 50 to 100% each time.

Take `O=C(Nc1ccc(F)c(NC(=O)C(F)(F)Cl)c1F)c1cc(NC(=O)[C@H]2[C@H](c3ccc(Cl)c(C(F)(F)F)c3)C2(Cl)Cl)ccc1Cl` [F1719, 2-Chloro-N-(3-(2-chloro-2,2-difluoroacetamido)-2,4-difluorophenyl)-5-((1R,3R)-2,2-dichloro-3-(4-chloro-3-(trifluoromethyl)phenyl)cyclopropane-1-carboxamido)benzamide]: the YFM result in test [1] (setting [9]) was “A (80–100)”. Besides, the pest or weed control at 50 µg/cm2 in test [2] (setting [10]) and in test [3] (setting [11]) was 50 to 100% throughout.

Turning to `O=C(CCCNC(=O)c1cc(NC(=O)[C@H]2[C@H](c3cc(Cl)cc(Cl)c3)C2(Cl)Cl)ccc1Cl)NCCC(F)(F)F` (relative stereo) [F2093, trans-2-Chloro-5-(2,2-dichloro-3-(3,5-dichlorophenyl)cyclopropanecarboxamido)-N-(4-oxo-4-(3,3,3-trifluoropropylamino)butyl)benzamide], the YFM rating entry in test [1] (Yellow Fever Mosquito) was “B (More than 0 – Less than 80)”. Also, the pest or weed control at 50 µg/cm2 in test [2] (setting [4]) and in test [3] (setting [5]) was 50 to 100% throughout.

Turning to `O=C(Nc1cc(NC(=O)C(F)F)c(F)cc1F)c1cc(NC(=O)[C@H]2[C@H](c3cc(Cl)c(Cl)c(Cl)c3)C2(Cl)Cl)ccc1F` [F1552, 5-((1R,3R)-2,2-Dichloro-3-(3,4,5-trichlorophenyl)cyclopropane-1-carboxamido)-N-(5-(2,2-difluoroacetamido)-2,4-difluorophenyl)-2-fluorobenzamide], the YFM entry in test [1] (setting [9]) is on record as “A (80–100)”. In addition, the pest or weed control at 50 µg/cm2 in test [2] (setting [10]) and in test [3] (setting [11]) was 50 to 100% each time.

In the case of `CC(=O)Nc1ccc(F)c(NC(=O)c2cc(NC(=O)[C@H]3[C@H](c4cc(Cl)c(Cl)c(Cl)c4)C3(Cl)Cl)ccc2F)c1F` [F1556, N-(3-Acetamido-2,6-difluorophenyl)-5-((1R,3R)-2,2-dichloro-3-(3,4,5-trichlorophenyl)cyclopropane-1-carboxamido)-2-fluorobenzamide], the YFM entry in test [1] (setting [9]) is on record as “A (80–100)”. In addition, the pest or weed control at 50 µg/cm2 in test [2] (setting [10]) and in test [3] (setting [11]) was 50 to 100% throughout.

For the compound `C#CCN(C(=O)c1cc(NC(=O)[C@H]2[C@H](c3ccc(F)c(C(F)(F)F)c3)C2(Cl)Cl)ccc1Cl)c1ccc(F)c(N)c1F` (relative stereo) [F1114, trans-N-(3-Amino-2,4-difluorophenyl)-2-chloro-5-(2,2-dichloro-3-(4-fluoro-3-(trifluoromethyl)phenyl)cyclopropane-1-carboxamido)-N-(prop-2-yn-1-yl)benzamide], in test [1] (setting [6]), the YFM entry is “A (80–100)”. The pest or weed control at 50 µg/cm2 in test [2] (setting [7]) and in test [3] (setting [8]) was 50 to 100% throughout.

Take `CC(=O)Nc1cc(F)ccc1NC(=O)c1cc(NC(=O)[C@H]2[C@H](c3cc(Cl)cc(Cl)c3)C2(Cl)Cl)ccc1Cl` (relative stereo) [F1637, trans-N-(2-Acetamido-4-fluorophenyl)-2-chloro-5-(2,2-dichloro-3-(3,5-dichlorophenyl)cyclopropane-1-carboxamido)benzamide]: the YFM entry in test [1] (setting [9]) is “B (More than 0 – Less than 80)”. Besides, the pest or weed control at 50 µg/cm2 in test [2] (setting [10]) and in test [3] (setting [11]) was 50 to 100% in each case.

Regarding `O=C(Nc1c(F)ccc(NC(=O)c2cc(NC(=O)[C@H]3[C@H](c4ccc(F)c(C(F)(F)F)c4)C3(Cl)Cl)ccc2Cl)c1F)c1ccn(CC(F)(F)F)n1` [F1819, N-(3-(2-Chloro-5-((1R,3R)-2,2-dichloro-3-(4-fluoro-3-(trifluoromethyl)phenyl)cyclopropane-1-carboxamido)benzamido)-2,6-difluorophenyl)-1-(2,2,2-trifluoroethyl)-1H-pyrazole-3-carboxamide], the YFM rating result in test [1] (Yellow Fever Mosquito) is on record as “A (80–100)”. Moreover, the pest or weed control at 50 µg/cm2 in test [2] (setting [4]) and in test [3] (setting [5]) was 50 to 100% in each case.

Consider `O=C(Nc1ccc(F)c(NC(=O)C(F)(F)F)c1F)c1cc(NC(=O)[C@H]2[C@H](c3cc(Cl)c(Cl)c(Cl)c3)C2(Cl)Cl)cc(F)c1F` [F1438, 5-((1R,3R)-2,2-Dichloro-3-(3,4,5-trichlorophenyl)cyclopropane-1-carboxamido)-N-(2,4-difluoro-3-(2,2,2-trifluoroacetamido)phenyl)-2,3-difluorobenzamide], for which the YFM entry in test [1] (setting [9]) is listed as “A (80–100)”. In addition, the pest or weed control at 50 µg/cm2 in test [2] (setting [10]) and in test [3] (setting [11]) was 50 to 100% each time.

In the case of `O=C(NNC(=O)c1cc(NC(=O)[C@H]2[C@H](c3cc(Cl)cc(Cl)c3)C2(Cl)Cl)ccc1Cl)c1ccccn1` (relative stereo) [F2531, trans-2,2-Dichloro-N-(4-chloro-3-(2-picolinoylhydrazine-1-carbonyl)phenyl)-3-(3,5-dichlorophenyl)cyclopropane-1-carboxamide], the YFM rating entry in test [1] (Yellow Fever Mosquito) was “A (80–100)”. The pest or weed control at 50 µg/cm2 in test [2] (setting [4]) and in test [3] (setting [5]) was 50 to 100% throughout.

On to `CC(C)(C)OC(=O)Nc1c(F)ccc(NC(=O)c2cc(NC(=O)[C@H]3[C@H](c4cc(Cl)cc(C(F)(F)F)c4)C3(Cl)Cl)ccc2Cl)c1F` (relative stereo) [F1119, trans-tert-Butyl-(3-(2-chloro-5-(2,2-dichloro-3-(3-chloro-5-(trifluoromethyl)phenyl)cyclopropane-1-carboxamido)benzamido)-2,6-difluorophenyl)carbamate], for which the YFM entry in test [1] (setting [6]) is “A (80–100)”. The pest or weed control at 50 µg/cm2 in test [2] (setting [7]) and in test [3] (setting [8]) was 50 to 100% throughout.

As for `O=C(NNc1ccc(Cl)nn1)c1cc(NC(=O)[C@H]2[C@H](c3cc(Cl)cc(Cl)c3)C2(Cl)Cl)ccc1Cl` (relative stereo) [F2506, trans-2,2-Dichloro-N-(4-chloro-3-(2-(6-chloropyridazin-3-yl)hydrazine-1-carbonyl)phenyl)-3-(3,5-dichlorophenyl)cyclopropane-1-carboxamide], in test [1] (Yellow Fever Mosquito), the YFM rating entry is “A (80–100)”. The pest or weed control at 50 µg/cm2 in test [2] (setting [4]) and in test [3] (setting [5]) was 50 to 100% in each case.
